How the values were obtained:
Test in all cases: radiometric filter-binding kinase assay
Settings in all cases: compound 100.0 µM
[1] = target: MAPKAPK2 (human) (UniProt P49137)
[2] = target: INSRR (human) (UniProt P14616)
[3] = target: MAP3K11 (human) (UniProt Q16584)
[4] = target: MAPK14 (human) (UniProt Q16539)
[5] = target: ERBB4 (human) (UniProt Q15303)
[6] = target: DYRK3 (human) (UniProt O43781)
[7] = system: AKT2 (human), P31751 [S474D]
[8] = target: MINK1 (human) (UniProt Q8N4C8)
[9] = target: AURKA (human) (UniProt O14965)
[10] = target: MARK2 (human) (UniProt Q7KZI7)
[11] = target: MAPK12 (human) (UniProt P53778)
[12] = target: RIPK2 (human) (UniProt O43353)
[13] = target: BTK (human) (UniProt Q06187)
Sequence of BTK (human) (Q06187 whole entry, looked up): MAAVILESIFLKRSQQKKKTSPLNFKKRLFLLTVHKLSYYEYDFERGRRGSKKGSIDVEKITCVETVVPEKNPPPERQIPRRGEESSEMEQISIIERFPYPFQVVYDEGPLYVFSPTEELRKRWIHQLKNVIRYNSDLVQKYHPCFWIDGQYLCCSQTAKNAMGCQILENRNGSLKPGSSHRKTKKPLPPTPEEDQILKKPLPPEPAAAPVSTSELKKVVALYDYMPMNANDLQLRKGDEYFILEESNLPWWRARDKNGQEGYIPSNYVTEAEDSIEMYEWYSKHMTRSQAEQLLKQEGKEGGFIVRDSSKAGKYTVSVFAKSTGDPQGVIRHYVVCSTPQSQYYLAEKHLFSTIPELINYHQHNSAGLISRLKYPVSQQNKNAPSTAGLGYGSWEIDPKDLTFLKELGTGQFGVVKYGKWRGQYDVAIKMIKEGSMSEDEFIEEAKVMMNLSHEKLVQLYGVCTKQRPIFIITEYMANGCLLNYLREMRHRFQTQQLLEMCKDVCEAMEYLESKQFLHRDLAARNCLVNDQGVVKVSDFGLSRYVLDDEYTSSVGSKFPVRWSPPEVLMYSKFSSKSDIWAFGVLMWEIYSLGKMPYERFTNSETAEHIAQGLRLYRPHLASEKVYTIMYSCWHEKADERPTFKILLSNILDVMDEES

[14] = target: CLK2 (human) (UniProt P49760)
[15] = target: AURKB (human) (UniProt Q96GD4)
Sequence of AURKB (human) (Q96GD4 whole entry, looked up): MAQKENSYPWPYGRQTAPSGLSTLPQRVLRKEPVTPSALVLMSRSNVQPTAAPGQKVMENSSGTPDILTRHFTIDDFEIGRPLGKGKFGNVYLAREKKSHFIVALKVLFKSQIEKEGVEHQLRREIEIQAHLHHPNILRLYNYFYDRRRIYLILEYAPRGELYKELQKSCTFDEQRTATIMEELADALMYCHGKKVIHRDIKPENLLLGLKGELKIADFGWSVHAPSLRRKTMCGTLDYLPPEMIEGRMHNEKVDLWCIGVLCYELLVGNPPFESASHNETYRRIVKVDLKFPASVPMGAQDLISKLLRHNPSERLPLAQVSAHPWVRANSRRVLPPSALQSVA

[16] = target: TTK (human) (UniProt P33981)
[17] = target: DYRK1A (human) (UniProt Q13627)
[18] = target: MAPK13 (human) (UniProt O15264)
[19] = target: MAPK1 (human) (UniProt P28482)
[20] = target: RPS6KA3 KD1 KD2 (human) (UniProt P51812)
[21] = target: DYRK2 (human) (UniProt Q92630)
Sequence of DYRK2 (human) (Q92630 whole entry, looked up): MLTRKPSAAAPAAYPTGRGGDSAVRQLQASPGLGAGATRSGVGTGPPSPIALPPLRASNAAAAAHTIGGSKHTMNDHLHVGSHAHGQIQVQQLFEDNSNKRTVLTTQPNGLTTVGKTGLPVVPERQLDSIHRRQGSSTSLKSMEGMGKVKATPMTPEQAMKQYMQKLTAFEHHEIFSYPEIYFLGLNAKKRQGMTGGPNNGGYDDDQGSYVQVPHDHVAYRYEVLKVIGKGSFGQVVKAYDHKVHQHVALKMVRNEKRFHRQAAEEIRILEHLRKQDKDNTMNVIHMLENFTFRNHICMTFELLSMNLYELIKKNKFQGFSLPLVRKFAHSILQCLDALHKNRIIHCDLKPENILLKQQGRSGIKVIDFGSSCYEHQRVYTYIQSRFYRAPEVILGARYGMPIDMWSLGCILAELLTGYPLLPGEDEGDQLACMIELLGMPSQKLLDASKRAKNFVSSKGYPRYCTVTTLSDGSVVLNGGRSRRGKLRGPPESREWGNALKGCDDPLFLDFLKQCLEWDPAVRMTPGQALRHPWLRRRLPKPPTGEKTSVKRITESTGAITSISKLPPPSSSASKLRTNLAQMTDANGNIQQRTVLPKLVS

[22] = target: INSR (human) (UniProt P06213)
[23] = target: PIM1 (human) (UniProt P11309)
Sequence of PIM1 (human) (P11309 whole entry, looked up): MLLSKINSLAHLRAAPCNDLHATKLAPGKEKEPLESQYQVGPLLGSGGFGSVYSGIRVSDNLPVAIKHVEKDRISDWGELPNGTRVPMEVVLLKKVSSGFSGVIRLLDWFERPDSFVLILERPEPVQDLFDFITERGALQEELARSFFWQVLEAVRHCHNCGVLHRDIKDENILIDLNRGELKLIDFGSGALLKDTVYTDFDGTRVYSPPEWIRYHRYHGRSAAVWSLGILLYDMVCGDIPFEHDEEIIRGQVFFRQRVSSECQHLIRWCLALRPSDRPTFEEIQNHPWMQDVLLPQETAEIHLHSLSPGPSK

[24] = target: MAPK3 (human) (UniProt P27361)
Sequence of MAPK3 (human) (P27361 whole entry, looked up): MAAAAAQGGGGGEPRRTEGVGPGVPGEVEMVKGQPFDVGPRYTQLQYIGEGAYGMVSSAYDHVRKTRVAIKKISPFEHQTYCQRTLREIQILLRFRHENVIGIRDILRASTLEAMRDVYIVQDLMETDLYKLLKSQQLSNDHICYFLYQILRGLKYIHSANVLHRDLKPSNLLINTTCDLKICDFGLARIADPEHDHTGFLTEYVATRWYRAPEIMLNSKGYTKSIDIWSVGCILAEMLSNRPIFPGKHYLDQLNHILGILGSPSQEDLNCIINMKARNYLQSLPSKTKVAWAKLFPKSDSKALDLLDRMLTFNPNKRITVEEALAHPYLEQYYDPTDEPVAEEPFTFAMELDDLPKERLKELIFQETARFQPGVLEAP

[25] = target: MAPKAPK3 (human) (UniProt Q16644)
[26] = target: NEK2 (human) (UniProt P51955)
[27] = target: IKBKE (human) (UniProt Q14164)
[28] = target: NUAK1 (human) (UniProt O60285)
Sequence of NUAK1 (human) (O60285 whole entry, looked up): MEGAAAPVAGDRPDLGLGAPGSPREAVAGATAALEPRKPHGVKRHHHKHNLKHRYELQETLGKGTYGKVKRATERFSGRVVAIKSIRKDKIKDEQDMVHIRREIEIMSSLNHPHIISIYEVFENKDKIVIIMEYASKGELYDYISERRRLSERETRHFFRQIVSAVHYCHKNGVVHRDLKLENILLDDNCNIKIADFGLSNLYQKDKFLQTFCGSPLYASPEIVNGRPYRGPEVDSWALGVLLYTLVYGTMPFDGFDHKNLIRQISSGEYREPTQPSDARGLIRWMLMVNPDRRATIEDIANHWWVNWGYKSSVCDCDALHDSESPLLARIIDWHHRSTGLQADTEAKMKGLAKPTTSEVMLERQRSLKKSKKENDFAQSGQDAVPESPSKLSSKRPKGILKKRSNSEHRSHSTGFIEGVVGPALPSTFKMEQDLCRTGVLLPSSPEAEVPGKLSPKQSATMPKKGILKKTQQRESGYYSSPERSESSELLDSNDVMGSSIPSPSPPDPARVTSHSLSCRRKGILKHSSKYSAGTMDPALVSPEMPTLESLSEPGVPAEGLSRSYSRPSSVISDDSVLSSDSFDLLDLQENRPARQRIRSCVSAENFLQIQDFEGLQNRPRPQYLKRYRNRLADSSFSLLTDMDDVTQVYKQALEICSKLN

[29] = target: FGFR1 (human) (UniProt P11362)
[30] = target: MAPK9 (human) (UniProt P45984)
[31] = target: MAP3K9 (human) (UniProt P80192)
Sequence of MAP3K9 (human) (P80192 whole entry, looked up): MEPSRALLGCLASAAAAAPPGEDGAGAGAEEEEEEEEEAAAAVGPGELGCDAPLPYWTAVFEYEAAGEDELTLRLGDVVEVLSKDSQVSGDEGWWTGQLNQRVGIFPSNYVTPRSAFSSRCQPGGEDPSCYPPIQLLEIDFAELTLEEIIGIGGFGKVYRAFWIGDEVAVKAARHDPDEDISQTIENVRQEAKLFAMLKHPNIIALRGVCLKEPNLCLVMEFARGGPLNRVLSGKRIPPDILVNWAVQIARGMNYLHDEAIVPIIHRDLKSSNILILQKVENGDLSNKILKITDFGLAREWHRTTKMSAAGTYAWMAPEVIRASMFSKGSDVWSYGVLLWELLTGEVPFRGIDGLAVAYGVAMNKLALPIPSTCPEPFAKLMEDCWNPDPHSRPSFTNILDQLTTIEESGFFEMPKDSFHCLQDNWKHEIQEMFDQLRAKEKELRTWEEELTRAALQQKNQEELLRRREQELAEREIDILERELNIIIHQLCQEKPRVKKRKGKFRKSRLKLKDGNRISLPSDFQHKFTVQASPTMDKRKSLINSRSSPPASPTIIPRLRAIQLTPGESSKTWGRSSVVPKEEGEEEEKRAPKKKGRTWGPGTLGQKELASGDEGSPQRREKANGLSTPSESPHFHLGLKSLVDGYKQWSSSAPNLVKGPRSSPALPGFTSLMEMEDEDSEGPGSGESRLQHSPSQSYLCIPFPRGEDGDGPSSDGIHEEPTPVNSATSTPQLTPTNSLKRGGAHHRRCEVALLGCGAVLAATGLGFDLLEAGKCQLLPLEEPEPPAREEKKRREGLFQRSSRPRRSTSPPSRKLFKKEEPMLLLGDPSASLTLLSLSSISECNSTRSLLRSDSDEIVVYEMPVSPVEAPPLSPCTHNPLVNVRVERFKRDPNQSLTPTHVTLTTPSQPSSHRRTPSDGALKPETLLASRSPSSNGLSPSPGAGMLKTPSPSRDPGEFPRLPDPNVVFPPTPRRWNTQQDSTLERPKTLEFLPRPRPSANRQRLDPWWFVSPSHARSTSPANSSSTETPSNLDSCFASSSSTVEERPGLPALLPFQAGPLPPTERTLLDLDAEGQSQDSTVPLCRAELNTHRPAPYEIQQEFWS

[32] = target: GSK3B (human) (UniProt P49841)
[33] = target: PIM3 (human) (UniProt Q86V86)
[34] = target: MAPK10 (human) (UniProt P53779)
[35] = target: HIPK2 (human) (UniProt Q9H2X6)
[36] = target: CaMK1 (human) (UniProt Q14012)
Sequence of CaMK1 (human) (Q14012 whole entry, looked up): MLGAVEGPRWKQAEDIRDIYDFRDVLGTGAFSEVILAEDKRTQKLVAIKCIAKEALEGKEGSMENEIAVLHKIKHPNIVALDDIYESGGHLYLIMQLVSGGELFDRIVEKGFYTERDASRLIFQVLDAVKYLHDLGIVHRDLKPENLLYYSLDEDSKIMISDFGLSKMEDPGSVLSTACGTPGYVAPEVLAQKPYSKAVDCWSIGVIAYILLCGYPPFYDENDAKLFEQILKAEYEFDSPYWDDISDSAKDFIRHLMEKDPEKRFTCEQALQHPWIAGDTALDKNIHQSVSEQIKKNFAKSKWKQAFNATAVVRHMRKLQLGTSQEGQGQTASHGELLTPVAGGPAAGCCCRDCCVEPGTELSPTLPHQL

[37] = target: CHEK2 (human) (UniProt O96017)
[38] = target: MAPK8 (human) (UniProt P45983)
[39] = target: PLK1 (human) (UniProt P53350)
[40] = target: FLT1 (human) (UniProt P17948)
[41] = target: MAPK11 (human) (UniProt Q15759)

Sequence of DYRK3 (human) (O43781 whole entry, looked up): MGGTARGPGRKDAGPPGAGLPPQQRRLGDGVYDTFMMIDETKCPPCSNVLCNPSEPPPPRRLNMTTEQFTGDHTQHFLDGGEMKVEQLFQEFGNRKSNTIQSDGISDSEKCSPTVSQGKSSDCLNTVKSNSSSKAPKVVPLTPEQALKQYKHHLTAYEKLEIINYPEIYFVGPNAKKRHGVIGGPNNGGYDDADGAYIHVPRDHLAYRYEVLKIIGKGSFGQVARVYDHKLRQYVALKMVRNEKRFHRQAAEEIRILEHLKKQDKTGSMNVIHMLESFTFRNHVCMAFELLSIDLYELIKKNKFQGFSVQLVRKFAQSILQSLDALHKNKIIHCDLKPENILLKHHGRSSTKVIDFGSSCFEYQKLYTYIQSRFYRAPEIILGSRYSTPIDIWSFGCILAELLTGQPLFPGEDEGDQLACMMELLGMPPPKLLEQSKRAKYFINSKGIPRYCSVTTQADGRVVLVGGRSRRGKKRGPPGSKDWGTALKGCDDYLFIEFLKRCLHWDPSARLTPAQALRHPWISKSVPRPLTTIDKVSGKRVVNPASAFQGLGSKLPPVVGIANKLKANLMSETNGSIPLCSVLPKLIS

## Cc1cccc(Nc2nc(-c3sc(N)nc3C)cs2)n1
[1]
  residual activity: 8%
[2]
  residual activity: 26%
[3]
  residual activity: 5%
[4]
  residual activity: 36%
[5]
  residual activity: 19%
[6]
  residual activity: 23%
[7]
  residual activity: 8%
[8]
  residual activity: 2%
[9]
  residual activity: 7%
[10]
  residual activity: 66%
[11]
  residual activity: 60%
[12]
  residual activity: 23%
[13]
  residual activity: 21%
[14]
  residual activity: 18%
[15]
  residual activity: 5%
[16]
  residual activity: 44%
[17]
  residual activity: 18%
[18]
  residual activity: 65%
[19]
  residual activity: 73%
[20]
  residual activity: 11%
[21]
  residual activity: 23%
[22]
  residual activity: 99%
[23]
  residual activity: 13%
[24]
  residual activity: 19%
[25]
  residual activity: 8%
[26]
  residual activity: 19%
[27]
  residual activity: 9%
[28]
  residual activity: 14%
[29]
  residual activity: 29%
[30]
  residual activity: 88%
[31]
  residual activity: 4%
[32]
  residual activity: 78%
[33]
  residual activity: 6%
[34]
  residual activity: 80%
[35]
  residual activity: 7%
[36]
  residual activity: 3%
[37]
  residual activity: 41%
[38]
  residual activity: 83%
[39]
  residual activity: 90%
[40]
  residual activity: 12%
[41]
  residual activity: 69%

— the kinase profiling compilation of Christmann-Franck et al. (2016)
